According to US20240190831A1, “TRANSTHYRETIN STABILIZING COMPOUNDS” (Protego Biopharma, Inc., priority 2021, published 2024):

Key:
[1] = In vivo rat PK (CSF/plasma and brain/plasma ratio of tafamidis); details: for Tafamidis CSF/plasma Ratio over 24 hrs (po): oral dosing of test compound
Description: For a compound provided herein to be an effective TTR stabilizer drug to halt and/or prevent the ocular and cerebral TTR amyloid deposition TTR amyloidosis, it has to be able to penetrate into the brain and CSF (surrogate for eye penetration) and deliver a sufficient amount of TTR stabilizer to stop TTR dissociation. A pharmacokinetic study in rat was used to evaluate the compounds. Male Sprague-Dawley (SD) rats (200-220 g weight) were acclimated for at least 2 to 3 days before being placed on study. All animals had access to certified rodent diet and water at libitum. Appropriate amount of the test compound was accurately weighed and mixed with appropriate volume of vehicle (such as DMSO/sterile water for iv dosing or 0.5% methylcellulose homogenous suspension or solution for oral administration or as a solution in a mixture NMP/PEG400/solutol/water) to administer a dose of 2, 5 or 10 mg/kg. For IV dosing the test compound was administered via tail vein or indwelling cannula. For oral dosing, the test compound was administered by oral gavage. Blood and CSF samples were collected at selected timepoints. Blood collection was performed from saphenous vein or tail vein of each animal into polypropylene tubes at each timepoint. All blood samples were transferred into EDTA-K2 tubes and centrifuged for 15 minutes at 4° C. for plasma collection. Plasma samples were kept at −80° C. until LC/MSMS analysis. CSF was collected from cisterna magna at each timepoint and quick frozen over dry ice and kept at −80° C. until LC/MSMS analysis. Brains were harvested immediately after the terminal bleeding (˜24 hrs post dosing). The blood of the brain was perfused with normal saline. The brain was quickly picked and placed into centrifuge tube. The weight of brain samples was recorded. 4-Fold homogenization solution (MeOH/15 mM PBS (1:2)) was added into the tube according to the weighed samples. The brain was homogenized using a Polytron (3 strokes or more until homogenous, each 30 seconds) on wet ice. The samples were quick frozen over dry ice and kept at −80° C. until LC/MSMS analysis. Using a LC-MSMS method for the quantitative determination of test compound in biological matrixes, amount of test compound and active agent were measured in plasma and CSF at selected timepoints post-dosing and in brain at 24 hrs post dosing. Plasma concentration versus time data was analyzed by non-compartmental approaches using the Phoenix WinNonlin 6.3 software program. As reference, an oral dose of 2 mg/kg of tafamidis gave a CSF to plasma ratio over 24 hrs around 0.01 and a brain to plasma ratio at 24 hrs around 0.02.
Results from rat PK (CSF/plasma ratio and brain/plasma ratio at 24 hrs) are shown in Table 4B and Table 4C, respectively.

[2] = In vitro rat liver S9 stability assay (formation of tafamidis); assay type: in vitro ADME; details: rat liver S9, 1 μM test compound, 37° C.
How it was run: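 Test compound at 1 μM was incubated with rat liver S9 at 37° C. Samples taken at 0, 5, 10, 20, 30 and 60 min were protein-precipitated and analysed by LC-MS/MS. Percentage formation of the active agent was calculated at each time point.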

[3] = tafamidis-treated FAP patients; cited from earlier work

CN(C)CCNC(=O)c1ccc2nc(-c3cc(Cl)cc(Cl)c3)oc2c1 [Compound 7, 2-(3,5-dichlorophenyl)-N-(2-(dimethylamino)ethyl)benzo[d]oxazole-6-carboxamide]
Tafamidis CSF/plasma Ratio over 24 hrs (po) [1]: C (C is ≥0.02)
Formation of tafamidis at 60 min [2]: A (A is <25%)

CC(Cc1ncc[nH]1)OC(=O)c1ccc2nc(-c3cc(Cl)cc(Cl)c3)oc2c1 (stereo not drawn) [Compound 34, 1-(1H-imidazol-2-yl)propan-2-yl 2-(3,5-dichlorophenyl)benzo-[d]oxazole-6-carboxylate]
Tafamidis CSF/plasma Ratio over 24 hrs (po) [1]: B (B is ≥0.015 to <0.02)
Formation of tafamidis at 60 min [2]: A (A is <25%)

O=C(c1ccc2nc(-c3cc(Cl)cc(Cl)c3)oc2c1)N1CCCC(O)C1 (stereo not drawn) [Compound 83]
Tafamidis CSF/plasma Ratio over 24 hrs (po) [1]: A (A is <0.015)
Formation of tafamidis at 60 min [2]: A (A is <25%)

O=C(c1ccc2nc(-c3cc(Cl)cc(Cl)c3)oc2c1)N1CCC(O)C1 (stereo not drawn) [Compound 84]
Tafamidis CSF/plasma Ratio over 24 hrs (po) [1]: A (A is <0.015)
Formation of tafamidis at 60 min [2]: A (A is <25%)

O=C(c1ccc2nc(-c3cc(Cl)cc(Cl)c3)oc2c1)N1CC(O)C1 [Compound 93]
Tafamidis CSF/plasma Ratio over 24 hrs (po) [1]: A (A is <0.015)
Formation of tafamidis at 60 min [2]: A (A is <25%)

CC1(O)CN(C(=O)c2ccc3nc(-c4cc(Cl)cc(Cl)c4)oc3c2)C1 [Compound 101]
Tafamidis CSF/plasma Ratio over 24 hrs (po) [1]: B (B is ≥0.015 to <0.02)
Formation of tafamidis at 60 min [2]: A (A is <25%)

O=C(c1ccc2nc(-c3cc(Cl)cc(Cl)c3)oc2c1)N1CCC(F)(F)C1 [Compound 104]
Tafamidis CSF/plasma Ratio over 24 hrs (po) [1]: A (A is <0.015)
Formation of tafamidis at 60 min [2]: A (A is <25%)

O=C(c1ccc2nc(-c3cc(Cl)cc(Cl)c3)oc2c1)N1C[C@@H]2[C@H](O)[C@@H]2C1 [Compound 108]
Formation of tafamidis at 60 min [2]: A (A is <25%)

O=C(c1ccc2nc(-c3cc(Cl)cc(Cl)c3)oc2c1)N1C[C@@H]2[C@@H](O)[C@@H]2C1 [Compound 109]
Formation of tafamidis at 60 min [2]: A (A is <25%)

CC1(O)CC2(CN(C(=O)c3ccc4nc(-c5cc(Cl)cc(Cl)c5)oc4c3)C2)C1 [Compound 110]
Formation of tafamidis at 60 min [2]: A (A is <25%)

CC1(O)CCC2(CN(C(=O)c3ccc4nc(-c5cc(Cl)cc(Cl)c5)oc4c3)C2)C1 (stereo not drawn) [Compound 111]
Formation of tafamidis at 60 min [2]: A (A is <25%)

O=C(c1ccc2nc(-c3cc(Cl)cc(Cl)c3)oc2c1)N1CCC(F)C1 (stereo not drawn) [Compound 112]
Formation of tafamidis at 60 min [2]: A (A is <25%)

O=C(c1ccc2nc(-c3cc(Cl)cc(Cl)c3)oc2c1)N1CC(F)(F)C[C@H]1CO [Compound 113]
Formation of tafamidis at 60 min [2]: A (A is <25%)

O=C(c1ccc2nc(-c3cc(Cl)cc(Cl)c3)oc2c1)N1CC[C@@H](O)[C@@H](F)C1 [Compound 114]
Formation of tafamidis at 60 min [2]: A (A is <25%)

O=C(c1ccc2nc(-c3cc(Cl)cc(Cl)c3)oc2c1)N1CCCCC(F)(F)C1 [Compound 115]
Formation of tafamidis at 60 min [2]: A (A is <25%)

O=C(c1ccc2nc(-c3cc(Cl)cc(Cl)c3)oc2c1)N1CCC(O)C(F)(F)C1 (stereo not drawn) [Compound 116]
Formation of tafamidis at 60 min [2]: A (A is <25%)

CC1(OC(=O)c2ccc3nc(-c4cc(Cl)cc(Cl)c4)oc3c2)CCNC1.Cl (stereo not drawn) [Compound 117]
Formation of tafamidis at 60 min [2]: A (A is <25%)

O=C(c1ccc2nc(-c3cc(Cl)cc(Cl)c3)oc2c1)N1CCCC1C(F)(F)F (stereo not drawn) [Compound 118]
Formation of tafamidis at 60 min [2]: A (A is <25%)

CC1(OC(=O)c2ccc3nc(-c4cc(Cl)cc(Cl)c4)oc3c2)CCN(CC(F)(F)F)C1 (stereo not drawn) [Compound 119]
Formation of tafamidis at 60 min [2]: A (A is <25%)

CC1(OC(=O)c2ccc3nc(-c4cc(Cl)cc(Cl)c4)oc3c2)CCN(CCF)C1 (stereo not drawn) [Compound 120]
Formation of tafamidis at 60 min [2]: A (A is <25%)

O=C(c1ccc2nc(-c3cc(Cl)cc(Cl)c3)oc2c1)N1C[C@@H](F)[C@@H](F)C1 [Compound 121]
Formation of tafamidis at 60 min [2]: A (A is <25%)

CC1(OC(=O)c2ccc3nc(-c4cc(Cl)cc(Cl)c4)oc3c2)CCN(CC(F)F)C1 (stereo not drawn) [Compound 122]
Formation of tafamidis at 60 min [2]: C (C is ≥50 to <75%)

CC1(OC(=O)c2ccc3nc(-c4cc(Cl)cc(Cl)c4)oc3c2)CCNCC1.Cl [Compound 123]
Formation of tafamidis at 60 min [2]: A (A is <25%)

CC1(OC(=O)c2ccc3nc(-c4cc(Cl)cc(Cl)c4)oc3c2)CCN(CC(F)(F)F)CC1 [Compound 124]
Formation of tafamidis at 60 min [2]: A (A is <25%)

O=C(c1ccc2nc(-c3cc(Cl)cc(Cl)c3)oc2c1)N1CC[C@H](O)[C@H](F)C1 [Compound 125]
Formation of tafamidis at 60 min [2]: A (A is <25%)

CCN1CCC(C)(OC(=O)c2ccc3nc(-c4cc(Cl)cc(Cl)c4)oc3c2)CC1 [Compound 126]
Formation of tafamidis at 60 min [2]: A (A is <25%)

O=C(O)c1ccc2nc(-c3cc(Cl)cc(Cl)c3)oc2c1 [tafamidis]
Kp ([1]; male, Sprague-Dawley, CSF and plasma, oral dose of 2 mg/kg of tafamidis, reference, read-out: CSF to plasma ratio over 24 hrs): ~0.01
Kp at 24 h ([1]; male, Sprague-Dawley, brain and plasma, oral dose of 2 mg/kg of tafamidis, reference): ~0.02
tafamidis level in CSF, of that in plasma [3]: 2%
tafamidis level in vitreous, of that in plasma [3]: 0.5%
tafamidis/TTR stoichiometric ratio in plasma [3]: 2.4
tafamidis/TTR stoichiometric ratio in vitreous and CSF [3]: ≤ 1
